From patent US12319640B2, “Cyclic diones as herbicidal compounds” (SYNGENTA CROP PROTECTION AG, priority 2019, dated 2025)

Experiments:
Assay in all cases: Glasshouse herbicide test, pre- and post-emergence
Assay type in all cases: in vivo
[1] = test system: Echinochloa crus-galli (ECHCG); settings: 250 g/h, evaluated after 13 days, five-point scale; for percentage damage caused to the plant, ECHCG POST: post-emergence; for percentage damage caused to the plant, ECHCG PRE: pre-emergence
Method: (§1) Seeds of a variety of test species are sown in standard soil in pots (Lolium perenne (LOLPE), Setaria faberi (SETFA), Alopecurus myosuroides (ALOMY), Echinochloa crus-galli (ECHCG), Avena fatua (AVEFA)). After cultivation for one day (pre-emergence) or after 8 days cultivation (post-emergence) under controlled conditions in a glasshouse (at 24/16° C., day/night; 14 hours light; 65% humidity), the plants are sprayed with an aqueous spray solution derived from the formulation of the technical active ingredient in acetone/water (50:50) solution containing 0.5% Tween 20 (polyoxyethelyene sorbitan monolaurate, CAS RN 9005-64-5). Compounds are applied at 250 g/h. The test plants are then grown in a glasshouse under controlled conditions in a glasshouse (at 24/16° C., day/night; 14 hours light; 65% humidity) and watered twice daily. After 13 days for pre and post-emergence, the test is evaluated for the percentage damage caused to the plant. The biological activities are shown in the following table on a five-point scale (5=80-100%; 4=60-79%; 3=40-59%; 2=20-39%; 1=0-19%).

[2] = test system: Alopecurus myosuroides (ALOMY); settings: 250 g/h, evaluated after 13 days, five-point scale; for percentage damage caused to the plant, ALOMY POST: post-emergence; for percentage damage caused to the plant, ALOMY PRE: pre-emergence
Method: as §1

Avena fatua (AVEFA) = settings: 250 g/h, evaluated after 13 days, five-point scale; for percentage damage caused to the plant, AVEFA POST: post-emergence; for percentage damage caused to the plant, AVEFA PRE: pre-emergence
Method: as §1

Setaria faberi (SETFA) = settings: 250 g/h, evaluated after 13 days, five-point scale; for percentage damage caused to the plant, SETFA POST: post-emergence; for percentage damage caused to the plant, SETFA PRE: pre-emergence
Method: as §1

Lolium perenne (LOLPE) = settings: 250 g/h, evaluated after 13 days, five-point scale; for percentage damage caused to the plant, LOLPE POST: post-emergence; for percentage damage caused to the plant, LOLPE PRE: pre-emergence
Method: as §1

Compound | percentage damage caused to the plant, ECHCG POST [1] | percentage damage caused to the plant, ECHCG PRE [1] | percentage damage caused to the plant, ALOMY POST [2] | percentage damage caused to the plant, ALOMY PRE [2] | percentage damage caused to the plant, AVEFA POST (Avena fatua (AVEFA)) | percentage damage caused to the plant, AVEFA PRE (Avena fatua (AVEFA)) | percentage damage caused to the plant, SETFA POST (Setaria faberi (SETFA)) | percentage damage caused to the plant, SETFA PRE (Setaria faberi (SETFA)) | percentage damage caused to the plant, LOLPE POST (Lolium perenne (LOLPE)) | percentage damage caused to the plant, LOLPE PRE (Lolium perenne (LOLPE))
CC#Cc1cc(C)c(C2C(=O)CC3(CCC(C(=O)N(C)C)CC3)CC2=O)c(C)c1 (centres unmarked) [Compound 1.001] | 5 (5=80-100%) | 5 (5=80-100%) | 5 (5=80-100%) | 5 (5=80-100%) | 5 (5=80-100%) | 5 (5=80-100%) | 5 (5=80-100%) | 5 (5=80-100%) | 5 (5=80-100%) | 5 (5=80-100%)
CC#Cc1cc(C)c(C2C(=O)CC3(CCC(C(=O)NC)CC3)CC2=O)c(C)c1 (centres unmarked) [Compound 1.002, 3-(2,6-dimethyl-4-prop-1-ynyl-phenyl)-N-methyl-2,4-dioxo-spiro[5.5]undecane-9-carboxamide] | 5 (5=80-100%) | 5 (5=80-100%) | 5 (5=80-100%) | 5 (5=80-100%) | 5 (5=80-100%) | 5 (5=80-100%) | 5 (5=80-100%) | 5 (5=80-100%) | 5 (5=80-100%) | 5 (5=80-100%)
CC#Cc1cc(C)c(C2C(=O)CC3(CCC(C(=O)NC(=O)c4ccccn4)CC3)CC2=O)c(C)c1 (centres unmarked) [Compound 1.003] | 5 (5=80-100%) | 5 (5=80-100%) | 5 (5=80-100%) | 4 (4=60-79%) | 5 (5=80-100%) | 4 (4=60-79%) | 5 (5=80-100%) | 5 (5=80-100%) | 5 (5=80-100%) | 4 (4=60-79%)
CC#Cc1cc(C)c(C2C(=O)CC3(CCC(C(=O)Nc4ccccn4)CC3)CC2=O)c(C)c1 (centres unmarked) [Compound 1.004] | 4 (4=60-79%) | 5 (5=80-100%) | 4 (4=60-79%) | 3 (3=40-59%) | 5 (5=80-100%) | 4 (4=60-79%) | 4 (4=60-79%) | 5 (5=80-100%) | 4 (4=60-79%) | 4 (4=60-79%)
CC#Cc1cc(C)c(C2C(=O)CC3(CCC(C(=O)N4CCOCC4=O)CC3)CC2=O)c(C)c1 (centres unmarked) [Compound 1.005] | 5 (5=80-100%) | 5 (5=80-100%) | 4 (4=60-79%) | 3 (3=40-59%) | 5 (5=80-100%) | 4 (4=60-79%) | 5 (5=80-100%) | 5 (5=80-100%) | 5 (5=80-100%) | 5 (5=80-100%)
CC#Cc1cc(C)c(C2C(=O)CC3(CCC(C(=O)N4CCS(=O)(=O)CC4)CC3)CC2=O)c(C)c1 (centres unmarked) [Compound 1.007] | 5 (5=80-100%) | 5 (5=80-100%) | 5 (5=80-100%) | 3 (3=40-59%) | 5 (5=80-100%) | 3 (3=40-59%) | 5 (5=80-100%) | 4 (4=60-79%) | 5 (5=80-100%) | 5 (5=80-100%)
CC#Cc1cc(C)c(C2C(=O)CC3(CCC(C(=O)N4CCOCC4)CC3)CC2=O)c(C)c1 (centres unmarked) [Compound 1.008] | 5 (5=80-100%) | 5 (5=80-100%) | 5 (5=80-100%) | 4 (4=60-79%) | 5 (5=80-100%) | 3 (3=40-59%) | 4 (4=60-79%) | 5 (5=80-100%) | 5 (5=80-100%) | 5 (5=80-100%)
CC#Cc1cc(C)c(C2C(=O)CC3(CCC(C(=O)N(C)CCO)CC3)CC2=O)c(C)c1 (centres unmarked) [Compound 1.009] | 5 (5=80-100%) | 4 (4=60-79%) | 5 (5=80-100%) | 4 (4=60-79%) | 5 (5=80-100%) | 3 (3=40-59%) | 5 (5=80-100%) | 3 (3=40-59%) | 5 (5=80-100%) | 5 (5=80-100%)
CC#Cc1cc(C)c(C2C(=O)CC3(CCC(C(=O)NOC)CC3)CC2=O)c(C)c1 (centres unmarked) [Compound 1.010] | 5 (5=80-100%) | 5 (5=80-100%) | 4 (4=60-79%) | 3 (3=40-59%) | 5 (5=80-100%) | 3 (3=40-59%) | 5 (5=80-100%) | 5 (5=80-100%) | 5 (5=80-100%) | 5 (5=80-100%)
CC#Cc1cc(C)c(C2C(=O)CC3(CCC(C(=O)NCCOC)CC3)CC2=O)c(C)c1 (centres unmarked) [Compound 1.011] | 5 (5=80-100%) | 5 (5=80-100%) | 5 (5=80-100%) | 5 (5=80-100%) | 5 (5=80-100%) | 5 (5=80-100%) | 5 (5=80-100%) | 5 (5=80-100%) | 5 (5=80-100%) | 5 (5=80-100%)
CC#Cc1cc(C)c(C2C(=O)CC3(CCC(C(=O)NCCO)CC3)CC2=O)c(C)c1 (centres unmarked) [Compound 1.012] | 5 (5=80-100%) | 4 (4=60-79%) | 4 (4=60-79%) | 4 (4=60-79%) | 4 (4=60-79%) | 4 (4=60-79%) | 5 (5=80-100%) | 4 (4=60-79%) | 4 (4=60-79%) | 4 (4=60-79%)
